In ChEMBL document CHEMBL1147226, “dd-diketopiperazines: antibiotics active against Vibrio anguillarum isolated from marine bacteria associated with cultures of Pecten maximus” (2003):
Values after ≈ are worked out from the molar mass of the structure shown.

System: Vibrio anguillarum
Test: Antimicrobial activity against Vibrio anguillarum after 24 to 48 hrs
Type: functional

## O=C1N[C@@H](Cc2ccccc2)C(=O)N2CCC[C@H]12
  MIC: 0.1 µg/mL (≈ 0.409 µM)

## CC(C)C[C@H]1NC(=O)[C@H]2CCCN2C1=O
  MIC: 0.04 µg/mL (≈ 0.19 µM)

## O=C1N[C@H](Cc2ccccc2)C(=O)N2CCC[C@@H]12
  MIC: 0.13 µg/mL (≈ 0.532 µM)

## CC(C)C[C@H]1NC(=O)[C@@H]2CCCN2C1=O
  MIC: 0.12 µg/mL (≈ 0.571 µM)

## CC(C)C[C@H]1NC(=O)[C@@H](C(C)C)NC1=O
  MIC: 0.05 µg/mL (≈ 0.236 µM)

## O=C1N[C@H](Cc2ccccc2)C(=O)N2C[C@H](O)C[C@H]12
  MIC: 0.07 µg/mL (≈ 0.269 µM)

## CC(C)[C@H]1NC(=O)[C@H]2CCCN2C1=O
  MIC: 0.05 µg/mL (≈ 0.255 µM)

## CC(C)[C@H]1NC(=O)[C@@H]2CCCN2C1=O
  MIC: 0.14 µg/mL (≈ 0.713 µM)

## CC[C@@H](C)[C@H]1NC(=O)[C@@H]2CCCN2C1=O
  MIC: 0.11 µg/mL (≈ 0.523 µM)

## O=C1N[C@H](Cc2ccccc2)C(=O)N2CCC[C@H]12
  MIC: 0.03 µg/mL (≈ 0.123 µM)

## CC[C@@H](C)[C@@H]1NC(=O)[C@H]2CCCN2C1=O
  MIC: 0.12 µg/mL (≈ 0.571 µM)

## CC(C)[C@@H]1NC(=O)[C@H]2CCCN2C1=O
  MIC: 0.11 µg/mL (≈ 0.561 µM)

## CC(C)C[C@@H]1NC(=O)[C@H]2CCCN2C1=O
  MIC: 0.13 µg/mL (≈ 0.618 µM)

## CC[C@@H](C)[C@H]1NC(=O)[C@H]2CCCN2C1=O
  MIC: 0.05 µg/mL (≈ 0.238 µM)

## CC(C)C[C@H]1NC(=O)[C@@H](Cc2cnc[nH]2)NC1=O
  MIC: 0.07 µg/mL (≈ 0.28 µM)
